Experimental findings from US12503485B2, “Human aminosterol ENT-03 compounds, related compositions comprising the same, and methods of using the same” (Enterin, Inc., priority 2019, dated 2025) are described below.

One assay deals with T1, PP1B (Homo sapiens, UniProt P62140).
T1 construct: purchased Recation Biology Inc
The experiment in a line: Phosphatase assay PP1B (DiFMUP fluorescence). The assay is classed as biochemical. To be noted: for IC50: Table 2B, read-out: Compound IC50 (M) PP1B.

The next assay addresses T2, PP1A (Homo sapiens, UniProt P62136).
T2 construct: purchased Recation Biology Inc
The experiment in a line: Phosphatase assay PP1A (DiFMUP fluorescence). The assay is classed as biochemical. Conditions: for IC50: Table 2B, read-out: Compound IC50 (M) PP1A.

The target of a further assay is T3, PTPN6/SHP1 (Homo sapiens, UniProt P29350).
T3 construct: purchased Recation Biology Inc
The experiment in a line: Phosphatase assay PTPN6/SHP1. The assay is classed as biochemical. To be noted: for IC50: Table 2B, read-out: Compound IC50 (M) PTPN6/SHP1.

In a further assay the target is T4, PTPRC/CD45 (Homo sapiens, UniProt P08575).
T4 construct: purchased Recation Biology Inc
T4 sequence (P08575 26-1306): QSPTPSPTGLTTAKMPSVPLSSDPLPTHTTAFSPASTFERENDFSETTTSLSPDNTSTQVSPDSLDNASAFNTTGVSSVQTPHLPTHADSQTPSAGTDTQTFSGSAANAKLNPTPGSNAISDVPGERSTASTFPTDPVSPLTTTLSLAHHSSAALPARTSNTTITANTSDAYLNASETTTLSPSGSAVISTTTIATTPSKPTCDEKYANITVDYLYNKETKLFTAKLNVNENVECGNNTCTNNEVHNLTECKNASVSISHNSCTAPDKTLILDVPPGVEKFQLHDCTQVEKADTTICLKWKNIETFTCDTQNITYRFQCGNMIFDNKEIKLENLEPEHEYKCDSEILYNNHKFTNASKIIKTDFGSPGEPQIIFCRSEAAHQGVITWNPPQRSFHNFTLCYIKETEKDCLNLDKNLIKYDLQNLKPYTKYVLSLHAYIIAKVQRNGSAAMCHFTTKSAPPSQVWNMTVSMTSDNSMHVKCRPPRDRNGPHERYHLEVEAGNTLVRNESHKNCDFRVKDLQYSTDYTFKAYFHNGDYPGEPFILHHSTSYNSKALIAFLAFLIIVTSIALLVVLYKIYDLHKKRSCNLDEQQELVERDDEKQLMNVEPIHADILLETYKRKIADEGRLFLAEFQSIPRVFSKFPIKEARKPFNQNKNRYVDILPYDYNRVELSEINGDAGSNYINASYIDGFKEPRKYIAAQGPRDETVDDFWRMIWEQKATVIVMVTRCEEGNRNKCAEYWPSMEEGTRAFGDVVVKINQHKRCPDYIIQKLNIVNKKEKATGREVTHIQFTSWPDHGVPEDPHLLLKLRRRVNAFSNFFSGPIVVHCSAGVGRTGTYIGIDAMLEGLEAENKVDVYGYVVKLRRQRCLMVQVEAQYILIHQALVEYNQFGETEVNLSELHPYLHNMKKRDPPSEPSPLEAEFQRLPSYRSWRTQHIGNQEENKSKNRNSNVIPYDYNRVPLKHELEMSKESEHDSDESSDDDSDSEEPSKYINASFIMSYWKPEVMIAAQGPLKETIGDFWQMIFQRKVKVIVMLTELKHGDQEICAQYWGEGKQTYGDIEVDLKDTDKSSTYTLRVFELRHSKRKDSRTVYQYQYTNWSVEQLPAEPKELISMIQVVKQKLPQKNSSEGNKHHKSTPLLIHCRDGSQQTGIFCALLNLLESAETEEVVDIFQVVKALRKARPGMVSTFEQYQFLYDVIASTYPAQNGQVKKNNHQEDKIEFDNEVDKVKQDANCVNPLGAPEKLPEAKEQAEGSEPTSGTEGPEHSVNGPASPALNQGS
The experiment in a line: Phosphatase assay PTPRC/CD45. The assay is classed as biochemical.

In a further assay the target is T5, PTPN2/TC-PTP (Homo sapiens, UniProt P17706).
T5 construct: purchased Recation Biology Inc
T5 sequence (P17706 1-415): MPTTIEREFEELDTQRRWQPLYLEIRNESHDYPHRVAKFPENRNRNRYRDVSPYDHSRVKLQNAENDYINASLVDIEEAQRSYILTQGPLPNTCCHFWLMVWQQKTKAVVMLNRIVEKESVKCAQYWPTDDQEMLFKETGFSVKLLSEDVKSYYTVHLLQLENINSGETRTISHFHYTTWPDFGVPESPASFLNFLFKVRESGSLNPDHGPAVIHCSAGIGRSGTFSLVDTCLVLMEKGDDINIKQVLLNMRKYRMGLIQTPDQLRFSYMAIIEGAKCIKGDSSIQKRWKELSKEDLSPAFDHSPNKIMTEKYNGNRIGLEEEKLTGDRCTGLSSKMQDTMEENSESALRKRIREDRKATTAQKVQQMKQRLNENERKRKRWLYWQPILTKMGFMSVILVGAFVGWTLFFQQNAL
The experiment in a line: Phosphatase assay PTPN2/TC-PTP. Conditions: for IC50: Table 2C, read-out: Compound IC50 (M) PTPN2/TC-PTP. The assay is classed as biochemical.

A short description of assay [1]: Weight loss in male Swiss Webster mice, i.p. dosing. To be noted: male Swiss Webster mice about 50 g, i.p. 10 mg/kg every other day; for loss of starting body weight: by 27 days. The format is in vivo. The source says:
Food was provided ad lib.

Assay [2] is described as follows: Weight gain in growing male mice. The format is in vivo. Conditions: growing male mice about 25 g, similar dosing regimen. Here is the method: In a second experiment, growing male mice, about 25 grams, were administered either compound following a similar dosing regimen. As in the previous experiment, both compounds affected weight gain.
The next assay addresses T6, PTPN11/SHP2-FL (E76K) (Homo sapiens, UniProt Q06124, E76K).
T6 sequence (Q06124 2-597 isoform Q06124-1 E76K): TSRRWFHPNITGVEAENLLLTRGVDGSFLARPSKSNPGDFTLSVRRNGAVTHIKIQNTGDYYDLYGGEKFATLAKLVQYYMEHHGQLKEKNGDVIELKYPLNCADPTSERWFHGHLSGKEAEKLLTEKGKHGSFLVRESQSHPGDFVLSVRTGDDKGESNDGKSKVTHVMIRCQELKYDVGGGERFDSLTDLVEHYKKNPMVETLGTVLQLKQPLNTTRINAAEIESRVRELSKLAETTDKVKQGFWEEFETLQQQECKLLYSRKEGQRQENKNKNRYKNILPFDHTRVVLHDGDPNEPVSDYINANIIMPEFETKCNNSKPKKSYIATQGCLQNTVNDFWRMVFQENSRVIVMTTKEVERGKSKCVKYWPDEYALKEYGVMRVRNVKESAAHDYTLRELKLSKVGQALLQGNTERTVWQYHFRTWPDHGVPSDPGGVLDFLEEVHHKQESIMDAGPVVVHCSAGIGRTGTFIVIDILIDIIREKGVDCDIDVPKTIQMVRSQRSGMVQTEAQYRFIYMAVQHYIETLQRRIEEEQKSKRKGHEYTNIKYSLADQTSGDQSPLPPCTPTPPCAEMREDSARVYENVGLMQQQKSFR
The experiment in a line: Phosphatase assay PTPN11/SHP2-FL (E76K).

T2 sequence (P62136 whole entry): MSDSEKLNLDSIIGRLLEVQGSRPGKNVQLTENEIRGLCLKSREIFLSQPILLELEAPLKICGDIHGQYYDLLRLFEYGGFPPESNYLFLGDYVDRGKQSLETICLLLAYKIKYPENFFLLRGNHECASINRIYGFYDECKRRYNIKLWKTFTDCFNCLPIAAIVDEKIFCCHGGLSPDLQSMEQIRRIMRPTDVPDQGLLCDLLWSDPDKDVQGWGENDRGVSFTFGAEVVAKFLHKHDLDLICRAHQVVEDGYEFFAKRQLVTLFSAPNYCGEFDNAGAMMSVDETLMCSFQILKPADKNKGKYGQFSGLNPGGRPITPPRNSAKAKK
T3 sequence (P29350 whole entry): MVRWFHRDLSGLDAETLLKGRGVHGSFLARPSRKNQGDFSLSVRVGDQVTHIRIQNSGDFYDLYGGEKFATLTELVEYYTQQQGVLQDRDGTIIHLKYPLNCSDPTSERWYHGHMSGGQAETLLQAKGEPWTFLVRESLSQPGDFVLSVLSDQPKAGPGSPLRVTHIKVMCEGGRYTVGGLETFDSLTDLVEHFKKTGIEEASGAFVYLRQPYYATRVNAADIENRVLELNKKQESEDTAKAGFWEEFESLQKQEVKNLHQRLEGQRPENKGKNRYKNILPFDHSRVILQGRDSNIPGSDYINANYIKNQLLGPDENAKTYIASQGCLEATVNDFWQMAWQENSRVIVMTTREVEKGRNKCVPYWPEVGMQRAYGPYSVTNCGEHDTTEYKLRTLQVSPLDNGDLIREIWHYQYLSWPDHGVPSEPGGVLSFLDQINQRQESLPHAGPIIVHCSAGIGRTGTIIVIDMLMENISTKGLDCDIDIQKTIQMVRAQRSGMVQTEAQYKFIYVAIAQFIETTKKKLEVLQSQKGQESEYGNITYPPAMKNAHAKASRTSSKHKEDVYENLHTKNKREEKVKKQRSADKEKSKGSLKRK
T1 sequence (P62140 whole entry): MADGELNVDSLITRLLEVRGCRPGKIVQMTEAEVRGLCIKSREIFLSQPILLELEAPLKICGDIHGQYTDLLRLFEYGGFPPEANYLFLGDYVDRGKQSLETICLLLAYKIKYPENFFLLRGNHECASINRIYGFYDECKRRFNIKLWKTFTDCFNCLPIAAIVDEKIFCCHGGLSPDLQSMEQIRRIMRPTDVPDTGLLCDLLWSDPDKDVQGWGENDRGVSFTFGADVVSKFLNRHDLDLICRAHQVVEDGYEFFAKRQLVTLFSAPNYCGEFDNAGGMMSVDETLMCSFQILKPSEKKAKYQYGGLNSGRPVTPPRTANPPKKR

With `CC(C)[C@@H](CC[C@@H](C)[C@H]1CC[C@H]2[C@@H]3[C@H](O)C[C@H]4C[C@@H](NCCCNCCCCNCCCN)CC[C@]4(C)[C@H]3CC[C@]12C)OS(=O)(=O)O` (single isomer, unassigned) [ENT-02, trodusquemine], the IC50 at PP1B was more than 0.0001 M. On PP1A, the IC50 is more than 0.0001 M. Moreover, at PTPN6/SHP1, the “activity at PTPN6/SHP1, in words” value is given as “Neither compound inhibits” and the IC50 was more than 0.0001 M. For the same compound, the “activity on PTPRC/CD45, in words” value on PTPRC/CD45 was “target”. The IC50 at PTPN2/TC-PTP is more than 0.0001 M. For the same compound, in assay [1], the “effect on weight, in words” value is on record as “more severe decline”; the nadir of weight is approximately 16 days; the “recovery to the starting weight” value was approximately 45 days; the “loss of starting body weight” value was “about 10%”. Further, the “effect on growth, in words” value in assay [2] is “suppressed growth”. Further, at PTPN11/SHP2-FL (E76K), the “inhibition of PTPN11 (E76K), in words” value was “potently inhibit”.
`CC(CCCC(C)C1CCC2C3C(O)CC4CC(NCCCNCCCCNCCCN)CCC4(C)C3CCC12C)C(=O)O` (single isomer, unassigned; ent-03) [ENT-03, 3-β-Spermino-7α-hydroxy-5α-cholestanoic acid]: on PP1B, the “activity at PP1B, in words” value is “inactive” and the IC50 was more than 0.0001 M. Also, at PP1A, the “activity at PP1A, in words” value was “inactive” and the IC50 is more than 0.0001 M. In addition, the IC50 on PTPN6/SHP1 was more than 0.0001 M. In addition, the “activity on PTPRC/CD45, in words” value at PTPRC/CD45 is on record as “target”. The IC50 on PTPRC/CD45 (Table 2B, read-out: Compound IC50 (M) PTPRC/CD45) stood at 5.71e-07 M. Also, at PTPN2/TC-PTP, the “activity at PTPN2, in words” value was “inactive” and the IC50 is more than 0.0001 M. In addition, in assay [1], the “effect on weight, in words” value is “weight loss”; the nadir of weight is approximately 16 days; the “recovery to the starting weight” value is approximately 45 days; the “loss of starting body weight” value is given as “about 10%”. Besides, the “effect on growth, in words” value in assay [2] is reported as “continued normal growth”. In addition, the “inhibition of PTPN11 (E76K), in words” value on PTPN11/SHP2-FL (E76K) is “potently inhibit”.
